# From ChEMBL document CHEMBL1201862, “PubChem BioAssay data set” (2004)
# Calls of active or inactive are those of the source.
# Tests used:
# [1] = molecular target: T1, Adenosylmethionine-8-amino-7-oxononanoate aminotransferase (Mycobacterium tuberculosis, UniProt P9WQ81); assay: Mycobacterium tuberculosis BioA enzyme inhibitor Measured in Biochemical System Using Plate Reader - 2163-02_Inhibitor_Dose_CherryPick_Activity.; assay type: functional, Mycobacterium tuberculosis UT205
# T1 sequence (P9WQ81 whole entry): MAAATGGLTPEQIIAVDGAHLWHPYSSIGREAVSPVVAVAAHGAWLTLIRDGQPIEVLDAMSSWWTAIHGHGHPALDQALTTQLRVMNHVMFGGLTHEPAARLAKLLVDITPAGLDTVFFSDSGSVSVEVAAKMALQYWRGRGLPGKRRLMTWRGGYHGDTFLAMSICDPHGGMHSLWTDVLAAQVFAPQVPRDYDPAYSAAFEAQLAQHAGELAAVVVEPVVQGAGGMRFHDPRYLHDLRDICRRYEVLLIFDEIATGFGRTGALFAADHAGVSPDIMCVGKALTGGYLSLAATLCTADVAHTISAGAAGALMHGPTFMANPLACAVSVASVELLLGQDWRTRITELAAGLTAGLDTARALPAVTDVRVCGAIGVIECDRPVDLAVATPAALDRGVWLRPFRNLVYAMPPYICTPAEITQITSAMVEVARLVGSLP
# [2] = viability of uninfected HEp-2 cells – cell-based, HTS, cytotoxicity control for RSV inhibitor project, dose response (AID 2410); assay type: functional; conditions: human respiratory syncytial virus
# Bcl-2-related protein A1 = molecular target: T2, Bcl-2-related protein A1 (Mus musculus, UniProt Q07440); assay type: functional;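 further: confirmatory dose–response counterscreen on Bfl-1, used to check hits from a UBC13 polyubiquitin inhibitor campaign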
# T2 sequence (Q07440 whole entry): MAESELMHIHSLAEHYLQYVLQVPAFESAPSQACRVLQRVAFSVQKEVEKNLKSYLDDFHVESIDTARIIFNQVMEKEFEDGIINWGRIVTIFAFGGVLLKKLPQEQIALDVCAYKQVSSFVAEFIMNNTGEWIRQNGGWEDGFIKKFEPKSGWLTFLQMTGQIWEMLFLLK
# [3] = molecular target: T3, Ubiquitin-conjugating enzyme E2 N (Homo sapiens, UniProt P61088); assay type: functional
# T3 sequence (P61088 whole entry): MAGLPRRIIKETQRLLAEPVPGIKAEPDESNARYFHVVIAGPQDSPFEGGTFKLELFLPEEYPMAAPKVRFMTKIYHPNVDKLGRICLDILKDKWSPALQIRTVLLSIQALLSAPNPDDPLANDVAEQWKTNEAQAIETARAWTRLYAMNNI
# [4] = molecular target: T3, Ubiquitin-conjugating enzyme E2 N; assay type: functional; remark: listed apart in the source
# [5] = bead-based luminescence quenchers, dual-tagged ARNT – biochemical, AlphaScreen, cherry-pick, artefact control for ARNT-TACC3 interaction inhibitor project, dose response (AID 651705); assay type: functional;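 further: AlphaScreen bead proximity signal that flags compounds interfering with the detection technology; potency reflects signal decrease which marks the compound as an assay artifact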
# Interleukin-8 = molecular target: T4, Interleukin-8 (Homo sapiens, UniProt P10145); assay: Dose Response confirmation of uHTS small molecule hits for cystic fibrosis induced NFkb Inhibitors in a PAF-induced IL8 counterscreen.; assay type: functional; conditions: read-out: IC50_Mean
# T4 sequence (P10145 whole entry): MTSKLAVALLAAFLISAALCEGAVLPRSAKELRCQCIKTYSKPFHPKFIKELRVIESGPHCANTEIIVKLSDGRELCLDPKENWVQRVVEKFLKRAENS
# [6] = molecular target: Glucose-6-phosphate 1-dehydrogenase (Homo sapiens, UniProt P11413); assay: inhibition of Homo sapiens G6PD, dose series – biochemical, fluorescence, selectivity assay for P. falciparum G6PD inhibitor project, dose response (AID 504792); assay type: functional
# Cytochrome P450 2C19 = Cytochrome P450 2C19 (Homo sapiens, UniProt P33261); assay: Cytochrome panel assay with activity outcomes. Panel member name: p450-cyp2c19 Compounds with AC50 equal or less than 10 uM are considered active; assay type: functional; conditions: read-out: AC50
# [7] = molecular target: T5, Mitochondrial peptide methionine sulfoxide reductase (Bos taurus, UniProt P54149); assay: Absorbance-based biochemical high throughput dose response assay for activators of Methionine sulfoxide reductase A (MsrA).; assay type: functional
# T5 sequence (P54149 whole entry): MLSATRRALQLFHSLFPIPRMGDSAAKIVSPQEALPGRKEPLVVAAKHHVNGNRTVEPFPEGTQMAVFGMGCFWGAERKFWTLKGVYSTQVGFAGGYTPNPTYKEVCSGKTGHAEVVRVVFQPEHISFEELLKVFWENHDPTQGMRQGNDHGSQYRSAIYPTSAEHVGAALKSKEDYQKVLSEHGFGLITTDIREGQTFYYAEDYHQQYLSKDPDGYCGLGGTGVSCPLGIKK
# Cytochrome P450 3A4 = Cytochrome P450 3A4 (Homo sapiens, UniProt P08684);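 further: CYP3A4 tested as one member of a cytochrome P450 panel screen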
# Cytochrome P450 2C9 = Cytochrome P450 2C9 (Homo sapiens, UniProt P11712)
# [8] = viability of PTEN-deleted HCT116 cells – cell-based, HCT116 PTEN knockout, dose response (AID 1047); assay type: functional;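 further: HCT116 colon tumor cells with PTEN knocked out; cells exposed to compound for 60 hours before readout; potency for loss of cell viability measured by luminescence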
# [9] = viability of HCT116 lacking mutant beta-catenin – cell-based, human colon tumor, dose response (AID 1045); assay type: functional;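 further: HCT116 colon tumor cells with beta catenin knocked out; cells exposed to compound for 60 hours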
# [10] = molecular target: Heat shock protein HSP 90-alpha (Homo sapiens, UniProt P07900); assay type: functional, organism-based
# [11] = molecular target: T6, Sentrin-specific protease 8 (Homo sapiens, UniProt Q96LD8); assay type: functional
# T6 sequence (Q96LD8 whole entry): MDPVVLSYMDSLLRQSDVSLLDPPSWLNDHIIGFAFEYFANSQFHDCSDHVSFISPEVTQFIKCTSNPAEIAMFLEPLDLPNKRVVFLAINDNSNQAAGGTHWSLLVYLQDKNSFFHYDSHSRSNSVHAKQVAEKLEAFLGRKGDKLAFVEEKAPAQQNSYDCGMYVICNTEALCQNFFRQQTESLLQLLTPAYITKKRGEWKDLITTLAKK
# [12] = molecular target: T6, Sentrin-specific protease 8; assay type: functional; remark: listed apart in the source
# Mu-type opioid receptor = Mu-type opioid receptor (Homo sapiens, UniProt P35372); assay type: functional, cell-based;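 further: U2OS cells with beta-arrestin recruitment to OPRM1 by beta-gal complementation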
# [13] = molecular target: 5-hydroxytryptamine receptor 2A (Mus musculus, UniProt P35363); assay type: functional, cell-based;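 further: CHO-K1 cells with tagged receptor and beta-arrestin; agonist potency measured as compound-induced activation of the receptor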
# Beta-galactosidase = Beta-galactosidase (Escherichia coli, UniProt Q8VNN2); assay: PubChem AID 485352; assay type: functional
# [14] = molecular target: T7, Type-1 angiotensin II receptor (Homo sapiens, UniProt P30556); assay: antagonism of angiotensin II type 1 receptor – cell-based, uHTS hits, selectivity assay for APJ receptor antagonist project, dose response (AID 463214); assay type: functional;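 further: antagonist potency against angiotensin II stimulated AT1 response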
# T7 sequence (P30556 whole entry): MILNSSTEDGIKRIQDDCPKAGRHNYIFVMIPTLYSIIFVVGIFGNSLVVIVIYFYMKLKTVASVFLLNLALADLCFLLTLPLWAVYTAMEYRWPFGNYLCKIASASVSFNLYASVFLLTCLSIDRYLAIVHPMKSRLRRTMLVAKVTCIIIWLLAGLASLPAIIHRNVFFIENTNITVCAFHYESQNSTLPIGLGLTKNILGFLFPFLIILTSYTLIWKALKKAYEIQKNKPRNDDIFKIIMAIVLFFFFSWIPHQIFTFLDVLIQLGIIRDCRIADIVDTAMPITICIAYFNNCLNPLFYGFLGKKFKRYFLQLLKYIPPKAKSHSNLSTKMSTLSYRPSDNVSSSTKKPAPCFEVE
# HEK293 = assay: EBV LMP1 TES2 canonical NF-kB signalling blockers – cell-based, HEK293, luciferase, cherry-pick, dose response (AID 588343); assay type: functional; conditions: Homo sapiens
# Sequence of Beta-galactosidase (Q8VNN2 whole entry): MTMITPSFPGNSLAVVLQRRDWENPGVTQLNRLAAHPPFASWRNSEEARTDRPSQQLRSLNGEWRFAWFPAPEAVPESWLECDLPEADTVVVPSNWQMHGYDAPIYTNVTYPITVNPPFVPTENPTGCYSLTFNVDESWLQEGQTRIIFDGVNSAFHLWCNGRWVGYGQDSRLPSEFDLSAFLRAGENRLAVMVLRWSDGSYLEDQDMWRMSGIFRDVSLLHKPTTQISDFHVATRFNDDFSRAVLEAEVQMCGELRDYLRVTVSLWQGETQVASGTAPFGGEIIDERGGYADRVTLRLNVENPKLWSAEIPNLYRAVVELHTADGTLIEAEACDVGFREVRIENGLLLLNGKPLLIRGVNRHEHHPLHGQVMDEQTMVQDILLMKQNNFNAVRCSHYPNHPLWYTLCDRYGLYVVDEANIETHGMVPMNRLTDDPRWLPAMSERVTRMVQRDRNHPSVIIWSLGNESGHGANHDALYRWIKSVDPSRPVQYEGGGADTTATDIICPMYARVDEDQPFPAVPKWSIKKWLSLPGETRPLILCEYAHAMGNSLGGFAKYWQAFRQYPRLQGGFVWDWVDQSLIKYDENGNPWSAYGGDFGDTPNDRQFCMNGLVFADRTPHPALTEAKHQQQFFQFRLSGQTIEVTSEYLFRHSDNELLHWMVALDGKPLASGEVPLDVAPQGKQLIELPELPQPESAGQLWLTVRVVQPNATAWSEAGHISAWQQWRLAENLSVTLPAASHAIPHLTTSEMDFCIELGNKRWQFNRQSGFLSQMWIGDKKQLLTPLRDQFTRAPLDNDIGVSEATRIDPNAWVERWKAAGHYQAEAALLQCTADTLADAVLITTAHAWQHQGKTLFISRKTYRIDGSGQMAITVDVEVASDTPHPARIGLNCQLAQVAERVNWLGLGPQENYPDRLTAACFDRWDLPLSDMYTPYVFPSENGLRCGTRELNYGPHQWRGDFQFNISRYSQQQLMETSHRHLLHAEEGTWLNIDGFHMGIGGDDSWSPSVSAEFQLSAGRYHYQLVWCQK
# Sequence of Glucose-6-phosphate 1-dehydrogenase (P11413 whole entry): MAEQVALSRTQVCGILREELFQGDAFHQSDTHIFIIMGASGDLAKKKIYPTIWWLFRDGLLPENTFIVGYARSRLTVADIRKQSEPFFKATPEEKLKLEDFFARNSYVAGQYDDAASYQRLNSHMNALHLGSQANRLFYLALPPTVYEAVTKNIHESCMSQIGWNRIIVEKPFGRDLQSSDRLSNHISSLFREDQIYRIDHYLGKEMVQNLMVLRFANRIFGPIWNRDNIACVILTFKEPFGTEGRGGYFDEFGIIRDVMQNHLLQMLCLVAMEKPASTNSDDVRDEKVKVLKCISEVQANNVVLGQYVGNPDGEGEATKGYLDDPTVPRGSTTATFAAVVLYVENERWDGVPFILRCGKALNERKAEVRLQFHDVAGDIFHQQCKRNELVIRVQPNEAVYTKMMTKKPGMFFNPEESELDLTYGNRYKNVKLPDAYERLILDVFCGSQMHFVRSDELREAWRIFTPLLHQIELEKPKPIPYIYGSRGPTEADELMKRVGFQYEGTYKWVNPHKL
# Sequence of Cytochrome P450 3A4 (P08684 whole entry): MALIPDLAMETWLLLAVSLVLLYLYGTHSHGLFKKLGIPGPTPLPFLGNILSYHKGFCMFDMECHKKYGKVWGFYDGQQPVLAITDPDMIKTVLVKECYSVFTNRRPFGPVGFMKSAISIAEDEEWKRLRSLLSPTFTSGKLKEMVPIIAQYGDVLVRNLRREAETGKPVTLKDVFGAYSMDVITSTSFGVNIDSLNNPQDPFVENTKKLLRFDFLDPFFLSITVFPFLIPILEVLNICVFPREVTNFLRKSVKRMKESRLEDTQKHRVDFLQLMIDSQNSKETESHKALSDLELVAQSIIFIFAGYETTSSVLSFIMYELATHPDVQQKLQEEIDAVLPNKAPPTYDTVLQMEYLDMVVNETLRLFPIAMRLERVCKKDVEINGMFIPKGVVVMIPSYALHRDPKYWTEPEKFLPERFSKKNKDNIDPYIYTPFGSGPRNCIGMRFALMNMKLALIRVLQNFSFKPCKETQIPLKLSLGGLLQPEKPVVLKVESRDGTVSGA
# Sequence of 5-hydroxytryptamine receptor 2A (P35363 whole entry): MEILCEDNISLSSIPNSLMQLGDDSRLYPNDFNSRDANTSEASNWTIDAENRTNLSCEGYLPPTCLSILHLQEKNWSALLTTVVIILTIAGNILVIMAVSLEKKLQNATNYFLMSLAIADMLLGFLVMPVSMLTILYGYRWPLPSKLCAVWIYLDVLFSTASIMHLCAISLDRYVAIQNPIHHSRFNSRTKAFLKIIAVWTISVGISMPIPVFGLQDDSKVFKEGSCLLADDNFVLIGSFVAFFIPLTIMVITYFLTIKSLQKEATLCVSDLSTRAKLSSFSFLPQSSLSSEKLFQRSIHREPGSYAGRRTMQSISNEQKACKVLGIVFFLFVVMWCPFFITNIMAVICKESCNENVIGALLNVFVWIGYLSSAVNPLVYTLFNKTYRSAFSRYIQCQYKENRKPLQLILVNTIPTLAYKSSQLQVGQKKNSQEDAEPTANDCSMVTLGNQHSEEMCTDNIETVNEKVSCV
# Sequence of Cytochrome P450 2C19 (P33261 whole entry): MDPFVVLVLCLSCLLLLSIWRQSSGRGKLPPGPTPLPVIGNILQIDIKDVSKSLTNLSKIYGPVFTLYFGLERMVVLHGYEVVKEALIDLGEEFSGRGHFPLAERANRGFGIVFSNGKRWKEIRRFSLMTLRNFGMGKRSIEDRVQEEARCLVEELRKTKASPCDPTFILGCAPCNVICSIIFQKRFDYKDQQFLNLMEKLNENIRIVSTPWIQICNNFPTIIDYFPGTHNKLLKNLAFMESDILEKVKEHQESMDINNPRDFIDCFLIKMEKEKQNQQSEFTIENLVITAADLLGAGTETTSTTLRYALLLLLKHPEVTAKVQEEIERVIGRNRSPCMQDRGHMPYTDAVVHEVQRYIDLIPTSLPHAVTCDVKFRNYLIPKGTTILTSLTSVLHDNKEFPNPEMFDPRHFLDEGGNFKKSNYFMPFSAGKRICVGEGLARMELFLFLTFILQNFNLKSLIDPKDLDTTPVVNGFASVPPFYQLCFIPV
# Sequence of Cytochrome P450 2C9 (P11712 whole entry): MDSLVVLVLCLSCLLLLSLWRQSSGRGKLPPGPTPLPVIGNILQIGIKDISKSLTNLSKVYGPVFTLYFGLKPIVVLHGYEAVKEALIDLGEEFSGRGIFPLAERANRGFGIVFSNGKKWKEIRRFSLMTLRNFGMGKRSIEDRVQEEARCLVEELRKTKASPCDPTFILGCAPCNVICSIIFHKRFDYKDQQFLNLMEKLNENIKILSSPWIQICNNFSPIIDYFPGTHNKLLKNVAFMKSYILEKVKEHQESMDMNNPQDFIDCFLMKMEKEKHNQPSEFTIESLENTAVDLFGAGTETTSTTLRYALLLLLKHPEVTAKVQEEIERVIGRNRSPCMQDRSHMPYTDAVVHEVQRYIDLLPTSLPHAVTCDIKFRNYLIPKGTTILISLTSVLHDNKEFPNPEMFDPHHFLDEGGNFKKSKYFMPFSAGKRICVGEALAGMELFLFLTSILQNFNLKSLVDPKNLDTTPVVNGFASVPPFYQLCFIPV
# Sequence of Mu-type opioid receptor (P35372 whole entry): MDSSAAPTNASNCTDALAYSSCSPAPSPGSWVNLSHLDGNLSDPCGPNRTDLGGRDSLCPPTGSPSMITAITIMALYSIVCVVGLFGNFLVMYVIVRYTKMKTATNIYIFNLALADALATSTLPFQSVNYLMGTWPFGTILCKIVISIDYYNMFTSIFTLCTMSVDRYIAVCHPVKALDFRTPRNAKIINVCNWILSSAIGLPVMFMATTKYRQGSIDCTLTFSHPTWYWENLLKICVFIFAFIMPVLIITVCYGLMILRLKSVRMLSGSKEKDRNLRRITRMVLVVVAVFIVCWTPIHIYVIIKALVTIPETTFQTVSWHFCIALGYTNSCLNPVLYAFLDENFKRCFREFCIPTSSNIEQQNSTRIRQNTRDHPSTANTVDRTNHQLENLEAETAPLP
structure (smiles),measurement,setting,value
CC(=O)c1ccc(C(=O)N2CCCC(CO)(Cc3ccccc3C)C2)s1 (stereo not drawn),AC50,[1],4.14 µM (active)
CCc1ccc2nc(N(CCCN(C)C)C(=O)c3ccc(C(=O)c4ccccc4)cc3)sc2c1,CC50,[2],20.5 µM (active)
same,IC50,Bcl-2-related protein A1,> 20 µM (inactive)
same,IC50,[3],13.2 µM (active)
same,IC50,[4],11.6 µM (active)
CCOc1ccc(C(=O)CCNC(Cc2c[nH]cn2)C(=O)O)cc1 (stereo not drawn),AC50,[5],124 µM (active)
CCNC(=O)C1(C)CCCN(Cc2ccc(-c3ccccc3)o2)C1 (stereo not drawn),IC50,Interleukin-8,> 79 µM (inactive)
Cc1ccc(NC(=O)CNCc2ccccn2)cc1S(=O)(=O)N(C)C,AC50,[5],127 µM (active)
COc1cc(N)c2ncsc2c1,IC50,[6],> 80 µM (inactive)
Cc1ccc(-c2cc[nH]c(=S)n2)cc1,AC50,Cytochrome P450 2C19,14.1 µM (inconclusive)
same,EC50,[7],> 104 µM (inactive)
same,AC50,Cytochrome P450 3A4,14.1 µM (inconclusive)
same,AC50,Cytochrome P450 2C9,10 µM (inconclusive)
Cc1c(Cl)cccc1/N=C/c1ccc([N+](=O)[O-])s1,EC50,[8],26.5 µM (active)
same,EC50,[9],40.3 µM (active)
same,AC50,[10],7.37 µM (active)
same,IC50,[11],5.17 µM (active)
same,IC50,[12],3.66 µM (active)
COc1ccccc1CN1CCN(C(=O)c2ccco2)CC1,EC50,Mu-type opioid receptor,92.5 µM (inactive)
same,EC50,[13],1.99 µM (active)
Cc1cc(C)nc(NNS(=O)(=O)c2c(F)cc(F)cc2Br)n1,EC50,Beta-galactosidase,> 40 µM (inactive)
same,IC50,[14],22.7 µM (not active)
Cc1ccc(C(=O)Nc2nnc(SCC(=O)N3CCCc4ccccc43)s2)cc1,AC50,HEK293,1.3 µM (active)
